Results: PubChem BioAssay (NCI)
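Assay format: 96-well plates, 48-hour exposure. Here, GI50 denotes the concentration required for 50% inhibition of growth. TGI is the concentration that stops growth completely.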 Where a SMILES comes first, the peptide text is derived from it. Bridges are numbered along the chain shown (N, C = ends). Roman numbers before positions name the chains, in order. [ ]: non-standard residue; d: D form. The star is where a group is joined. Quinoxaline2carbonyl = O=C(c1cnc2ccccc2n1)*; NMeV = CN[CH](C(=O)O)C(C)C; NMeC = CN[CH](CS)C(=O)O

Tests used:
Test in all cases: NCI anticancer screen, dose series, 48 h
[1] = test system: A498 renal
[2] = test system: CAKI-1 renal
[3] = test system: HL-60(TB) leukemia
[4] = test system: HS 578T breast
[5] = test system: MOLT-4 leukemia
[6] = test system: RXF 393 renal
[7] = test system: SF-268 CNS
[8] = test system: SK-MEL-28 melanoma
[9] = test system: SK-OV-3 ovarian
[10] = test system: U251 CNS

Row | SMILES | TGI [1] [µM] | TGI [2] [µM] | TGI [3] [µM] | TGI [4] [µM] | TGI [5] [µM] | TGI [6] [µM] | TGI [7] [µM] | TGI [8] [µM] | TGI [9] [µM] | TGI [10] [µM] | GI50 [2] [µM] | GI50 [3] [µM] | GI50 [4] [µM] | GI50 [5] [µM] | GI50 [6] [µM] | GI50 [7] [µM] | GI50 [8] [µM] | GI50 [9] [µM] | GI50 [10] [µM] | GI50 [1] [µM]
1 | CC1NC(=O)C(NC(=O)c2cnc3ccccc3n2)COC(=O)C(C(C)C)N(C)C(=O)C2CSSCC(C(=O)N(C)C(C(C)C)C(=O)OCC(NC(=O)c3cnc4ccccc4n3)C(=O)NC(C)C(=O)N2C)N(C)C1=O (stereo unspecified) (I: Quinoxaline2carbonyl-SA[NMeC][NMeV] / II: Quinoxaline2carbonyl-SA[NMeC][NMeV]; ester I:1-II:C, I:C-II:1; disulfide I:3-II:3; configuration not given here) | < 0.01 | > 48.7 | < 0.01 | < 0.01 | > 4.64 | < 0.01 | 0.0641 | < 0.01 | 6.87 | > 31.8 |  |  |  |  |  |  |  |  |  | 
2 | CC(C)(C)CN1CCn2c(nc3c(N)nccc32)S1 |  | > 100 | 25.7 | > 100 | 82 | 64.5 | 34.9 | 29.7 | 81 | 47.2 | 25.3 | 4.77 | 33.6 | 5.55 | 15.7 | 12.5 | 13.5 | 5.15 | 13.3 | 
3 | COc1ccc2cc(-c3c(-c4ccncc4)nc(-c4ccc(S(C)=O)cc4)n3C)ccc2c1 (stereo unspecified) | > 25 | > 25 | > 25 | > 25 | > 25 | > 25 | > 25 | > 25 | > 25 | > 25 | 19.4 | 18.3 | 13.8 | 17.2 | 2.78 | > 25 | 24.2 | 10.7 | > 25 | > 7.37
4 | N#CN1CC[C@H](C(=O)Nc2ncc(-c3ccncc3)s2)C1 | 0.596 | > 83.2 | < 0.028 | 4.66 | 3.8 | 0.242 | 6.96 | 9.19 | > 30.9 | 53.5 | 0.101 | < 0.0171 | 0.0948 | < 0.01 | 0.0238 | 0.127 | 0.0814 | 1.15 | 0.0853 | 0.121
5 | CSC(=S)N/N=C(\C)c1cccc(C)n1 | 10.5 | 23.6 | 3.07 | > 89 |  | 13.8 | 46.7 | 63.5 | 10.7 | 33.8 |  |  |  |  |  |  |  |  |  | 
6 | CN(CCCCCl)P(=O)(OCCS(=O)(=O)CC(NC(=O)CCC(N)C(=O)O)C(=O)NC(C(=O)O)c1ccccc1)OCC1OC(n2cc(F)c(=O)[nH]c2=O)CC1O (stereo unspecified) | > 100 | 25.6 | 31.3 | 97.6 | > 95.5 | > 100 |  | > 100 | > 100 | > 41.6 | 0.0177 | 4.87 | 5.89 | 0.274 | 4 | < 0.01 | 15.2 | 41.3 | < 0.0171 | 
7 | Cn1cncc1CC1COC(=O)C1C(O)c1ccccc1 (stereo unspecified) | > 100 | > 100 | > 100 | > 100 | > 100 | > 100 | > 100 | > 100 | > 100 | > 100 |  |  |  |  |  |  |  |  |  | 
8 | C[CH2][Pb]([CH2]C)([CH2]C)[O]C(=O)c1ccc2ccccc2n1 | > 10 | > 10 | > 10 | > 10 | > 10 | > 10 | > 10 | > 10 | > 10 | > 10 | > 10 | > 10 | > 10 | > 10 | > 10 | > 10 | > 10 | > 10 | > 10 | > 10
9 | COc1ccc(OC)c(Cn2cc3c(c2)-c2oncc2CC3)c1 | 7.22 | > 100 | 6.74 | 8.32 | > 41.2 | 15.7 | > 100 | > 100 | > 57.5 | > 100 | 2.73 | 1.65 | 2.25 | 3.08 | 2.67 | 6.22 | 5.09 | 3.13 | 3.54 | 1.73
10 | COc1ccc(-c2cc(=O)c3c(OC)c(OC)c(OC)c(OC)c3o2)cc1 | 83.9 | > 100 | > 100 | > 100 | > 100 | > 100 | > 100 | > 100 | > 100 | > 100 |  |  |  |  |  |  |  |  |  | 
11 | CCC1(O)C(=O)OCc2c1cc1n(c2=O)Cc2cc3cc(N)ccc3nc2-1 (stereo unspecified) | 1.06 | 0.343 | 0.0145 | > 95.2 | < 0.01 | 1.12 |  | 41.8 | 0.207 | 0.129 |  |  |  |  | 0.126 |  | 0.493 |  |  | 
12 | CCN(CCO)CC(C)Nc1ccc([N+](=O)[O-])c2sc3ccccc3c(=O)c12 (stereo unspecified) | 9.54 | 1.09 | 4 | 10.5 | 2.89 | 8 | 11.5 | 10.3 | 14 | 3.35 | 0.304 | 0.917 | 1.75 | 0.361 | 1.89 | 1.98 | 2.68 | 2.53 | 0.716 | 0.252
13 | Cc1c(C2=C(c3cn(C)c4ccccc34)C(=O)NC2=O)c2ccccc2n1C | 11.2 | > 25 | > 25 | > 25 | > 25 | 19.6 | > 25 | > 25 | > 25 | > 25 | 1.81 | 0.962 | 0.943 | 2.18 | 1.38 | 4.82 | > 22.3 | 1.78 | 2.01 | 1.91
14 | CCN(Cc1ccc(Cl)s1)c1ccc(CO)c(Cl)c1 | 0.189 | 34.6 | 26.2 | > 60.4 | > 75.1 | 14.6 | > 60 | 25.4 | 18.2 | 13.2 | 2.27 | 3.11 | 11.7 | 21.5 | 2.1 | 17.7 | 11.8 | 2.74 | 0.434 | 0.0495
15 | N/N=C1\CC(=O)NC(=O)N1 | > 100 | > 100 | > 100 | > 100 | > 100 | > 100 | > 100 | > 100 | > 100 | > 100 |  |  |  |  |  |  |  |  |  | 
